This series deals with rodent lifetime carcinogenesis bioassay, tumor incidence TD50. The series is described as follows: chronic cancer bioassays in animals – CPDB, compiled studies (AID 1745844).

The structures appear in SMILES notation. Activity calls are given as the source filed them. The rule behind the calls is not given here.

What is called TD50 is the dose at which the toxic effect under study appears in half of the subjects. Take `CCN(N=O)C(N)=O`: the TD50 was 0.151 mg/kg/day (rat, strain F344/DuCrj, females, in drinking water, site: all sites, lesion: mononuclear-cell leukemia, dosed 103 weeks, study length 111 weeks); 0.0687 mg/kg/day (rat, strain F344/DuCrj, females, in drinking water, site: any site (literature study), lesion: several types, types named in the paper, dosed 103 weeks, study length 111 weeks); 0.904 mg/kg/day (rat, strain F344/DuCrj, females, in drinking water, site: brain, lesion: several types, types named in the paper, dosed 103 weeks, study length 111 weeks); 2.56 mg/kg/day (rat, strain F344/DuCrj, females, in drinking water, site: digestive tract, lesion: several types, types named in the paper, dosed 103 weeks, study length 111 weeks); 7.68 mg/kg/day (rat, strain F344/DuCrj, females, in drinking water, site: duodenum, lesion: several types, types named in the paper, dosed 103 weeks, study length 111 weeks); 2.54 mg/kg/day (rat, strain F344/DuCrj, females, in drinking water, site: mammary gland, lesion: adenocarcinoma, dosed 103 weeks, study length 111 weeks). In addition, the TD50 (rat, strain F344/DuCrj, females, in drinking water, site: thyroid follicle, lesion: papillary adenoma, dosed 103 weeks, study length 111 weeks) was 8.7 mg/kg/day; the TD50 (rat, strain F344/DuCrj, females, in drinking water, site: uterus, endometrium, lesion: sarcoma, dosed 103 weeks, study length 111 weeks) came to 2.56 mg/kg/day; the TD50 (rat, strain F344/DuCrj, females, in drinking water, site: uterus, lesion: adenoma, dosed 103 weeks, study length 111 weeks) was determined as 4.08 mg/kg/day; the TD50 (rat, strain F344/DuCrj, females, in drinking water, site: uterus, lesion: endometrial stromal polyp, dosed 103 weeks, study length 111 weeks) is 0.883 mg/kg/day; the TD50 (rat, strain F344/DuCrj, males, in drinking water, site: any site (literature study), lesion: several types, types named in the paper, dosed 99 weeks, study length 111 weeks) amounted to 0.025 mg/kg/day; the TD50 (rat, strain F344/DuCrj, males, in drinking water, site: brain, lesion: several types, types named in the paper, dosed 99 weeks, study length 111 weeks) is 0.997 mg/kg/day. Besides, the TD50 is, setting by setting: (rat, strain F344/DuCrj, males, in drinking water, site: digestive tract, lesion: several types, types named in the paper, dosed 99 weeks, study length 111 weeks) 1.15 mg/kg/day; (rat, strain F344/DuCrj, males, in drinking water, site: duodenum, lesion: several types, types named in the paper, dosed 99 weeks, study length 111 weeks) 31.2 mg/kg/day; (rat, strain F344/DuCrj, males, in drinking water, site: liver, lesion: neoplastic nodule, dosed 99 weeks, study length 111 weeks) 16.4 mg/kg/day; (rat, strain F344/DuCrj, males, in drinking water, site: lung, lesion: adenocarcinoma, dosed 99 weeks, study length 111 weeks) 2 mg/kg/day; (rat, strain F344/DuCrj, males, in drinking water, site: lung, lesion: adenoma, dosed 99 weeks, study length 111 weeks) 0.518 mg/kg/day; (rat, strain F344/DuCrj, males, in drinking water, site: mammary gland, lesion: fibroma, dosed 99 weeks, study length 111 weeks) 0.889 mg/kg/day. The TD50 was 10.2 mg/kg/day (rat, strain F344/DuCrj, males, in drinking water, site: peripheral nervous system, lesion: several types, types named in the paper, dosed 99 weeks, study length 111 weeks); 0.109 mg/kg/day (rat, strain F344/DuCrj, males, in drinking water, site: peritoneum, lesion: mesothelioma, dosed 99 weeks, study length 111 weeks); 2.42 mg/kg/day (rat, strain F344/DuCrj, males, in drinking water, site: subcutaneous tissue, lesion: fibroma, dosed 99 weeks, study length 111 weeks); 8.53 mg/kg/day (rat, strain F344/DuCrj, males, in drinking water, site: thyroid follicle, lesion: papillary adenocarcinoma, dosed 99 weeks, study length 111 weeks); 3.9 mg/kg/day (rat, strain F344/DuCrj, males, in drinking water, site: thyroid follicle, lesion: papillary adenoma, dosed 99 weeks, study length 111 weeks).
With `C=Cc1cccc[n+]1[O-]`, the TD50 reads like this: (mouse, strain ICI, females, i.v., site: any site (literature study), lesion: benign tumor, dosed 75 weeks, study length 104 weeks) 1690 mg/kg/day (inactive); (rat, strain Wistar, females, i.v., site: any site (literature study), lesion: malignant tumor, dosed 75 weeks, study length 104 weeks) 175 mg/kg/day (inactive). The carcinogen call is “negative (inactive)” (mouse, strain ICI, females, i.v., site: any site (literature study), lesion: malignant tumor, dosed 75 weeks, study length 104 weeks); “negative (inactive)” (mouse, strain ICI, females, i.v., site: lung, lesion: adenoma, dosed 75 weeks, study length 104 weeks); “negative (inactive)” (rat, strain Wistar, females, i.v., site: any site (literature study), lesion: benign tumor, dosed 75 weeks, study length 104 weeks).
For `N=c1ccn2c(n1)O[C@H]1[C@H](O)[C@@H](CO)O[C@H]12`, the carcinogen call is “negative (inactive)” (rat, strain Wistar, females, i.p., site: any site (literature study), lesion: one or several types, types not named, dosed 52 weeks, study length 52 weeks); “negative (inactive)” (rat, strain Wistar, females, i.p., site: any site (literature study), lesion: several types, types named in the paper, dosed 104 weeks, study length 104 weeks); “negative (inactive)” (rat, strain Wistar, males, i.p., site: any site (literature study), lesion: one or several types, types not named, dosed 52 weeks, study length 52 weeks); “negative (inactive)” (rat, strain Wistar, males, i.p., site: any site (literature study), lesion: several types, types named in the paper, dosed 104 weeks, study length 104 weeks).
`ClCC(Cl)(Cl)Cl`: the TD50 was 110 mg/kg/day (mouse, strain B6C3F1, females, by gavage, site: any site (literature study), lesion: several types, types named in the paper, dosed 103 weeks, study length 104 weeks); 175 mg/kg/day (mouse, strain B6C3F1, females, by gavage, site: liver, lesion: hepatocellular adenoma + hepatocellular carcinoma + neoplastic nodule, dosed 103 weeks, study length 104 weeks); 175 mg/kg/day (mouse, strain B6C3F1, females, by gavage, site: liver, lesion: hepatocellular adenoma + hepatocellular carcinoma, dosed 103 weeks, study length 104 weeks); 254 mg/kg/day (mouse, strain B6C3F1, females, by gavage, site: liver, lesion: hepatocellular adenoma, dosed 103 weeks, study length 104 weeks); 640 mg/kg/day (mouse, strain B6C3F1, females, by gavage, site: liver, lesion: hepatocellular carcinoma, dosed 103 weeks, study length 104 weeks); 1820 mg/kg/day (mouse, strain B6C3F1, females, by gavage, site: lung, lesion: alveolar/bronchiolar adenoma + alveolar/bronchiolar carcinoma, dosed 103 weeks, study length 104 weeks). The TD50 is 97.9 mg/kg/day (mouse, strain B6C3F1, males, by gavage, site: any site (literature study), lesion: several types, types named in the paper, dosed 103 weeks, study length 104 weeks); 124 mg/kg/day (mouse, strain B6C3F1, males, by gavage, site: liver, lesion: hepatocellular adenoma + hepatocellular carcinoma + neoplastic nodule, dosed 103 weeks, study length 104 weeks); 124 mg/kg/day (mouse, strain B6C3F1, males, by gavage, site: liver, lesion: hepatocellular adenoma + hepatocellular carcinoma, dosed 103 weeks, study length 104 weeks); 190 mg/kg/day (mouse, strain B6C3F1, males, by gavage, site: liver, lesion: hepatocellular adenoma, dosed 103 weeks, study length 104 weeks); 1330 mg/kg/day (mouse, strain B6C3F1, males, by gavage, site: lung, lesion: alveolar/bronchiolar adenoma + alveolar/bronchiolar carcinoma, dosed 103 weeks, study length 104 weeks); 3980 mg/kg/day (rat, strain Fischer 344, females, by gavage, site: liver, lesion: hepatocellular adenoma + hepatocellular carcinoma + neoplastic nodule, dosed 103 weeks, study length 104 weeks). Besides, the TD50 runs as follows: (rat, strain Fischer 344, females, by gavage, site: mammary gland, lesion: fibroadenoma, dosed 103 weeks, study length 104 weeks) 170 mg/kg/day (inactive); (rat, strain Fischer 344, males, by gavage, site: any site (literature study), lesion: several types, types named in the paper, dosed 103 weeks, study length 104 weeks) 464 mg/kg/day; (rat, strain Fischer 344, males, by gavage, site: liver, lesion: hepatocellular adenoma + hepatocellular carcinoma + neoplastic nodule, dosed 103 weeks, study length 104 weeks) 1130 mg/kg/day; (rat, strain Fischer 344, males, by gavage, site: multiple organs + peritoneum + tunica vaginalis, lesion: mesothelioma, malignant + mesothelioma, NOS, dosed 103 weeks, study length 104 weeks) 842 mg/kg/day (inactive).

The record behind these values is PubChem BioAssay AID1745844 (Carcinogenic Potency Database (CPDB), 2022).
